Test results from patent publication US20190062749A1, “SIRNA, PHARMACEUTICAL COMPOSITION AND CONJUGATE WHICH CONTAIN SIRNA, AND USES THEREOF” (priority 2015, published 2019).
Like-named read-outs stand apart in the source and are kept apart here. d = 2'-deoxy (DNA); m = 2'-O-methyl; r = 2'-OH (RNA); f = 2'-fluoro

Columns and labels:
HBsAg [1] = conditions: 0.1 mg/kg gastric gavage daily for 7 days
Description: The drug dosages for all animals were calculated based on the body weight and the administration volume was 10 ml/kg. The PBS group and each of the RBP131/X2M2 groups were administered with a single dose via tail vein, and the entecavir group was administered by gastric gavage daily for 7 consecutive days, i.e., once a day from day 0 to day 6. Half of the animals was sacrificed in batches at day 7 and day 28, respectively. The expression levels of HBsAg in liver tissue were detected by the detection method as described above.

[2] = Stability of siRNAs in human plasma in vitro (gel, ratio of the longest fragments RL); format: in vitro ADME; conditions: for band position / full-length state on gel (FIG. 3) / plasma stability (in words): up to 48 h
Description: The siRNAs (20 μM, 10 μl) obtained in Preparation Example 1 were incubated with 50% human plasma (HP) at 37° C. in vitro for a certain time and samples were taken therefrom. Specifically, 10 μl samples were taken at 0, 2, 4, 6, 8, 24 and 48 hours respectively and immediately snap frozen in liquid nitrogen, followed by cryopreservation at −80° C. for future use. 20 wt % non-denaturing polyacrylamide gel was formulated, and 10 μl 5-fold diluted above samples (dilution solution: 1×PBS buffer at pH 7.4) and 4 μl loading buffer (20 mM EDTA, 36 wt % glycerol, 0.06 wt % bromophenol blue) were mixed and then loaded into the gel to perform electrophoresis for about 60 minutes under 80 mA constant current. After electrophoresis finished, the gel was stained with 1× Sybr Gold dye (Invitrogen, Cat. 11494) for 15 minutes followed by imaging.
The ratio of the longest fragments remained after incubating the test siRNAs and control siRNAs with human plasma to the longest fragments of the siRNAs without the treatment of human plasma (i.e., the markers shown in FIG. 3) (also referred to as ratio of the longest fragments, RL) is calculated by reading the grayscale values quantitatively.

HBV gene = conditions: prior application CN102140461B; cited from earlier work
[3] = prior application CN102140461B; cited from earlier work
[4] = prior application CN102140461B; cited from earlier work; remark: listed apart in the source
HepG2.2.15 cells = assay: MTT cytotoxicity assay in HepG2.2.15 cells; format: cell-based; conditions: 500 nM concentration
rat primary hepatocytes = assay: MTT cytotoxicity assay in rat primary hepatocytes; format: cell-based; conditions: 500 nM concentration
HBV mRNA = assay: Inhibition of HBV mRNA expression in transfected HepG2.2.15 cells (fluorescent qPCR); format: cell-based; conditions: 50 nM, 10 nM and 1 nM siRNA, 48 hours after transfection
Description: HepG2.2.15 cells were purchased from ATCC, cultured with DMEM complete medium (Gibco) containing 10% fetal bovine serum (FBS, Gibco), 2 mM L-glutamine (Gibco) and 380 μg/ml G418 in an incubator containing 5% CO2/95% air at 37° C.
When using the siRNAs against the X gene region of HBV or the non-specific siRNAs as negative controls synthesized in Preparation Example 1 (all of which were synthesized by Suzhou Ribo Life Science Co., Ltd.) to transfect cells, Lipofectamine™ 2000 (Invitrogen) was used as a transfection reagent. The specific procedures thereof may refer to the instruction provided by the manufacturer. […]
The final concentrations of the siRNAs were 50 nM, 10 nM and 1 nM, respectively. The expression levels of HBV mRNA in the above harvested cells were measured by real-time fluorescent qPCR 48 hours after transfection. Specifically, RNeasy Mini Kit (QIAGEN Co., Cat. 74106) was used to extract total RNAs according to the instructions thereof, and the extracted total RNAs were reverse transcribed into cDNAs, and then the inhibitory efficiency of the siRNAs on the expression of HBV mRNA in HepG2.2.15 cells was detected by fluorescent qPCR method. […]
In this fluorescent qPCR method, the inhibitory activity of siRNA was expressed as the remaining expression of HBV gene, and was calculated as follows: […]

HBsAg [5] = conditions: 25 ng/g subcutaneously twice a week (day 0, 4, 7, 11, 14), day 7 to 28
Description: The drug dosages for all animals were calculated based on the body weight and the administration volume was 10 ml/kg. […] The blood was taken from mouse orbital venous plexus before administration and at day 7, 14, 21, and 28 after administration, and serum HBsAg levels were measured for each time point.
The volume of the blood taken out from the orbit was about 0.5 ml each time, and the volume of the serum was no less than 200 μl after centrifugation. HBsAg CLIA kit (Autobio, CL0310) was used to detect the expression levels of HBsAg in serum. The remaining expression of HBsAg was calculated as follows:
The remaining expression of HBsAg=(the content of HBsAg in the test group/the content of HBsAg in the PBS control group)×100%, wherein the content of HBsAg was expressed in nanograms of HBsAg per gram of liver tissue proteins.

Row | Molecule | RL (ratio of the longest fragments) 0 h ([2]; 50% human plasma, 37° C., 0 h) [%] | RL (ratio of the longest fragments) 2 h ([2]; 50% human plasma, 37° C., 2 h) [%] | RL (ratio of the longest fragments) 4 h ([2]; 50% human plasma, 37° C., 4 h) [%] | RL (ratio of the longest fragments) 6 h ([2]; 50% human plasma, 37° C., 6 h) [%] | RL (ratio of the longest fragments) 8 h ([2]; 50% human plasma, 37° C., 8 h) [%] | RL (ratio of the longest fragments) 24 h ([2]; 50% human plasma, 37° C., 24 h) [%] | RL (ratio of the longest fragments) 48 h ([2]; 50% human plasma, 37° C., 48 h) [%] | also measured
1 | C=C1[C@H](CO)[C@@H](O)C[C@@H]1n1cnc2c(=O)[nH]c(N)nc21 [ETV, entecavir] | – | – | – | – | – | – | – | inhibitory effect on the expression of HBsAg in the liver (in words) (HBsAg [1]): no inhibitory effect
2 | A4: siRNA of CN102140461B; sense CmCmUmUmGAGGCmAUmACmUmUmCmAAAdTdT, antisense UfUmUfGAAGUfAUfGCCUfCAAGGdTdT (sense CCUUGAGGCAUACUUCAAATT; antisense UUUGAAGUAUGCCUCAAGGTT; sense: DNA at T, 2'-O-methyl at CU, RNA at AG, backbone not given here; antisense: sugars from the 5' end fmfrrrrfrfrrrfrrrrrdd, backbone not given here) [reference compound] | 100.0 | 97.5 | 93.7 | 106.0 | 91.7 | 90.0 | 81.2 | band position / full-length state on gel (FIG. 3) ([2]; 50% human plasma): band thereof significantly shifts downward gradually; activity at cell level compared to unmodified siRNA CA1 (HBV gene): substantially equal inhibitory activity as that of siRNA CA1; stability in blood [3]: increased stability in blood
3 | CA2: alternating modifications; sense CmCUmUGmAGmGCmAUmACmUUmCAmAAmdTdT, antisense UmUUmGAmAGmUAmUGmCCmUCmAAmGGmdTdT (sense CCUUGAGGCAUACUUCAAATT; antisense UUUGAAGUAUGCCUCAAGGTT; sugars from the 5' end mrmrmrmrmrmrmrmrmrmdd, backbone not given here) [reference compound] | 100.0 | 86.9 | 76.5 | 68.8 | 67.7 | 48.7 | 52.0 | plasma stability (in words) ([2]; 50% human plasma): improved but is still not satisfactory; activity at cell level compared to unmodified siRNA CA1 (HBV gene): poorer activity at cell level; cytotoxicity compared to unmodified siRNA CA1 [4]: higher cytotoxicity; stability in blood [3]: fails to reach a stable state in the blood
4 | NC-pos: negative control siRNA; sense UmUmCmUmCCGAAmCGmUGmUmCmAmCGUdTdT, antisense AfCmGfUGACAfCGfUUCGfGAGAAdTdT (sense UUCUCCGAACGUGUCACGUTT; antisense ACGUGACACGUUCGGAGAATT; chemistry not fully specified) [reference compound] | – | – | – | – | – | – | – | RL (ratio of the longest fragments) 0 h [2]: 100.0%; RL (ratio of the longest fragments) 2 h [2]: 93.4%; RL (ratio of the longest fragments) 4 h [2]: 95.9%; RL (ratio of the longest fragments) 6 h [2]: 84.9%; RL (ratio of the longest fragments) 8 h [2]: 88.6%; RL (ratio of the longest fragments) 24 h [2]: 87.1%; RL (ratio of the longest fragments) 48 h [2]: 90.0%
5 | NC: negative control siRNA; sense UUCUCCGAACGUGUCACGUdTdT, antisense ACGUGACACGUUCGGAGAAdTdT (sense UUCUCCGAACGUGUCACGUTT; antisense ACGUGACACGUUCGGAGAATT; further chemistry not given here) [reference compound] | – | – | – | – | – | – | – | RL (ratio of the longest fragments) 0 h [2]: 100.0%; RL (ratio of the longest fragments) 2 h [2]: 83.9%; RL (ratio of the longest fragments) 4 h [2]: 69.7%; RL (ratio of the longest fragments) 6 h [2]: 58.4%; RL (ratio of the longest fragments) 8 h [2]: 52.6%; RL (ratio of the longest fragments) 24 h [2]: 36.2%; RL (ratio of the longest fragments) 48 h [2]: 26.0%
6 | X2M2(S++): sense CmCmUmUmGAGGCmAUmACmUmUmCmAAAdT-s-dT, antisense UfUmUfGAAGUfAUGCCUfCAAGGdT-s-dT (sense CCUUGAGGCAUACUUCAAAT; antisense UUUGAAGUAUGCCUCAAGGT; chemistry not fully specified) | 100.0 | 101.5 | 98.2 | 98.6 | 93.0 | 92.1 | 90.9 | –
7 | X2M2(S−−): sense CmCmUmUmGAGGCmAUmACmUmUmCmAAAdTdT, antisense UfUmUfGAAGUfAUGCCUfCAAGGdTdT (as printed in the source, key not given here) | 100.0 | 111.3 | 97.5 | 90.2 | 96.1 | 109.1 | 93.9 | –
8 | X2M2: siRNA against HBV X gene; sense CmCmUmUmGAGGCmAUmACmUmUmCmAAA-dTdT, antisense UfUmUfGAAGUfAUGCCUfCAAGG-dTdT; covers S++, S−−, S+−, S−+ (sense CCUUGAGGCAUACUUCAAATT; antisense UUUGAAGUAUGCCUCAAGGTT; sense: DNA at T, 2'-O-methyl at CU, RNA at AG, backbone not given here; antisense: sugars from the 5' end fmfrrrrfrrrrrfrrrrrdd, backbone not given here; phosphorothioate variants at dT overhangs exist) | – | – | – | – | – | – | ≥ 90 | cytotoxicity by MTT assay (HepG2.2.15 cells): no cytotoxicity was observed; cytotoxicity by MTT assay (rat primary hepatocytes): no cytotoxicity was observed; inhibitory activity on HBV mRNA expression in HepG2.2.15 cells (FIG. 2, in words) (HBV mRNA): excellent activity at cell level; band position / full-length state on gel (FIG. 3) ([2]; 50% human plasma): maintain a full-length state all the time; plasma stability (in words) ([2]; 50% human plasma): more excellent plasma stability than siRNA A4
9 | interferon [IFN] | – | – | – | – | – | – | – | inhibitory effect on the expression of HBsAg in serum (in words) (HBsAg [5]): no inhibitory effect
